# Measured values: paper PMC5607274, “An iterative compound screening contest method for identifying target protein inhibitors using the tyrosine-protein kinase Yes” (Scientific Reports, 2017)
# Target: T1, human recombinant Yes [a.a. 2–543 (end)] (Homo sapiens, UniProt P07947)
# T1 construct: human recombinant Yes [a.a; 2–543 (end)]; purchased BPS Bioscience 40488
# Experiment: ADP-Glo kinase assay, inhibition rates of Yes phosphorylation activity (first and second screening)
# Format: biochemical
# Conditions: first screening; mean of n = 4 wells; 10 μmol L−1 compound
# Procedure, shortened: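 Hits from a first pass were rescreened after re-dissolution from fresh powder. The first pass reported the mean inhibition rate of quadruplicate wells per compound. Activity was that of recombinant human Yes [a.a. 2–543] kinase, read out with the ADP-Glo ADP-detection method.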
# T1 sequence (P07947 2-543): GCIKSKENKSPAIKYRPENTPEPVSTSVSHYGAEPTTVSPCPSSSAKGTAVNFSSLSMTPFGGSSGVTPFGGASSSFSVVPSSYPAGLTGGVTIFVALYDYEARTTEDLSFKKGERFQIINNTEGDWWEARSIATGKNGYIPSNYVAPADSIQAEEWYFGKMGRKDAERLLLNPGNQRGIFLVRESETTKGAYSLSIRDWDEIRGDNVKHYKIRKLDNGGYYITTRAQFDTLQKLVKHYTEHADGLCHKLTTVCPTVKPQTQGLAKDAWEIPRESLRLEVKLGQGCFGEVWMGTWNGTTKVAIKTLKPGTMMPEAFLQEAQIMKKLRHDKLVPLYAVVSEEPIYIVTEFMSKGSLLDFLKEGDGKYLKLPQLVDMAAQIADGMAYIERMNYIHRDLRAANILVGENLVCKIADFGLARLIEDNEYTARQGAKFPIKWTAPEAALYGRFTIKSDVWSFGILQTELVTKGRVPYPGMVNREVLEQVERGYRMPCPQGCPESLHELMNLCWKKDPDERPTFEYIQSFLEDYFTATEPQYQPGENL
row,SMILES,First screening IR (inhibition rate) [%]
1,CCc1cc(N2CCC(NCc3c(Cl)cccc3N3CCCC3)CC2)ncn1 [Compound Z1549038619],0
2,Cc1ccc(S(=O)(=O)C2CS(=O)(=O)CC2O)c(C)c1 (stereo not shown) [Compound Z1549639934],-1
3,CC(C)c1cc(NS(=O)(=O)c2cc(F)c(Br)cc2F)n[nH]1 [Compound Z1551172092],5
4,O=C1NCc2cccc(NS(=O)(=O)c3c(Cl)ccnc3Cl)c21 [Compound Z1556993367],-3
5,Cc1cc(N2CCN(C(=O)Nc3cc(C)c4cn[nH]c4c3)CC2)nc(C)n1 [Compound Z1557589830],42
6,Cc1nc(CN)ccc1C(=O)Nc1ccc(Oc2ccc(Cl)cc2Cl)c(F)c1.Cl [Compound Z1561183584],-5
7,CC(C)(C)Oc1cccc(CN2CCC(c3c[nH]c4ncccc34)CC2)n1 [Compound Z1564730073],12
8,CC1CN(C(=O)C2CCS(=O)(=O)C2)c2cc(F)ccc2CN1C(=O)OC(C)(C)C (stereo not shown) [Compound Z1566941984],-8
9,CN(C)c1nccc(N2CCN(Cc3ccc(Cl)o3)CC2)n1 [Compound Z1569249080],27
10,Cn1c(=O)c2ccc(C(=O)NCc3cc(Cl)ccn3)nc2n(C)c1=O [Compound Z1574547064],-2
11,CC(C)(C)c1ccc(NC(=O)/C=C/c2cncc(O)c2)cc1 [Compound Z1574815119],6
12,Cc1ccc([N+](=O)[O-])c(N2CCC(NCCO)CC2)c1 [Compound Z1576995201],-9
13,Cc1nccn1-c1cncc(N2CCC3(CCCC3)CC2)n1 [Compound Z1578863056],34
14,CC1CN(C(=O)OC(C)(C)C)C(C)CN1C(=O)Cc1csc(N2CCNC2=O)n1 (stereo not shown) [Compound Z1579018538],2
15,CC(NCc1ccnc(OC2CCOC2)c1)c1cccc(F)c1 (stereo not shown) [Compound Z1583197068],21
16,CCCn1nccc1NC(=O)CN(C)C(C)c1cccc(-c2ccncc2)c1 (stereo not shown) [Compound Z1587266149],17
17,Cc1n[nH]c(C)c1C1CCCCCN1C(=O)Nc1cnc(N(C)C)nc1 (stereo not shown) [Compound Z1590996465],-1
18,Cc1cc(S(=O)(=O)N(C)CC(=O)N2CCC(O)CC2)cnc1Cl [Compound Z1591866613],-1
19,Cc1cc(C(NCC(=O)Nc2cccc(C(=O)N(C)C)c2)C(C)C)c(C)s1 (stereo not shown) [Compound Z1592563027],-2
20,CC(CN(C)Cc1ccccc1)Nc1nc(N)c2ccccc2n1 (stereo not shown) [Compound Z1593120476],-10
21,COCc1nnc(-c2cccc(-c3nc(-c4cccs4)no3)c2)o1 [Compound Z1601587562],11
22,CC(O)(CNc1ccnc2c(F)cc(Br)cc12)CN1CCOCC1 (stereo not shown) [Compound Z1601616896],-21
23,O=C(NCC(Cc1ccccc1)C(=O)O)c1ccc(-n2ccnc2)cc1 (stereo not shown) [Compound Z1603513622],15
24,CN(CCCc1nc2ccccc2[nH]1)C(=O)c1ccc(O)cc1F [Compound Z1614685203],9
25,N#Cc1ccc(C(=O)OCc2ccc(Br)cn2)[nH]1 [Compound Z1616590793],9
26,Cc1cc(NCc2nnc(C)n2C)c(C(N)=O)cc1F [Compound Z1618388683],-35
27,NC(=O)c1ccc2[nH]cc(C3CCN(C(=O)c4cccs4)CC3)c2c1 [Compound Z1624201749],-35
28,Cc1cc(N2CCCC(N3CCN(C(=O)c4ccncc4)CC3)C2=O)n(C)n1 (stereo not shown) [Compound Z1629496420],17
29,COc1cc(Br)c(CN(C)CCc2cnccn2)c(OC)c1 [Compound Z1632805805],7
30,CC1CC(CNC(=O)c2cccc(O)c2)CN1Cc1ccccc1 (stereo not shown) [Compound Z1633590863],1

# Second part, the compound after the results:
row,First screening IR (inhibition rate) [%],SMILES
1,-1,Cn1c(=O)[nH]c(=O)c2cc(C(=O)OCCNc3ncccc3C#N)cnc21 [Compound Z1633934253]
2,41,COc1cc(/C=C/C(=O)N2CCCC2c2c(C)nn(C)c2C)cc(Br)c1O (stereo not shown) [Compound Z1634598040]
3,-4,Cc1ccc(-c2noc(/C=C/c3cncc(O)c3)n2)cc1F [Compound Z1642148240]
4,3,COc1ccc(-c2noc(/C=C/c3cncc(O)c3)n2)cc1 [Compound Z1642148255]
5,-13,Oc1cncc(/C=C/c2nc(-c3ccc(Oc4ccc(F)cc4)nc3)no2)c1 [Compound Z1642148338]
6,2,Cc1ccc(NC2CCN(Cc3ccncc3)CC2)c(CN(C)C)c1 [Compound Z1642185485]
7,7,COC(=O)Nc1ccc(NC(=O)C2CC2c2ccc(C(C)C)cc2)cc1F (stereo not shown) [Compound Z1646916001]
8,6,CC(Nc1ccc(Oc2cccc3cccnc23)cc1)C(N)=O (stereo not shown) [Compound Z1651676792]
9,3,O=C(COc1ccccc1F)NCc1ccc2[nH]c(=O)[nH]c2c1 [Compound Z1654002148]
10,-9,CC(O)C1CCN(C(=O)NCC2CC(C)N(Cc3ccccc3)C2)C1 (stereo not shown) [Compound Z1658298345]
11,7,CC(C)(C)n1ncc2c(NCCc3nnc4n3CCCC4)ncnc21 [Compound Z1661117530]
12,10,OC1CCC(Nc2ncnc3cccc(I)c23)CC1 (stereo not shown) [Compound Z1661333590]
13,-18,COc1cccc(-c2cc(-c3ccc(C)cc3)c3ccccc3n2)c1 [Compound Z1664164245]
14,29,CCCCn1nc(C)c(C(=O)N2CCC(C)(CN3CCN(C)CC3)CC2)c1Cl [Compound Z1667221615]
15,8,CC(NC(=O)c1ccc2[nH]cnc2n1)c1ccc(-c2cncnc2)cc1 (stereo not shown) [Compound Z1669230171]
16,6,Cc1cc(F)cc2[nH]c(C(=O)NC3CN(C(=O)OC(C)(C)C)CC3C#N)cc12 (stereo not shown) [Compound Z1671371372]
17,5,CC(=O)[C@@H]1C[C@H](CC(=O)NCCc2ccn(-c3ccc(F)cc3)n2)C1(C)C [Compound Z1675157483]
18,48,CC1CCN(c2nc(N)nc3nc[nH]c23)CCN1Cc1ccccc1 (stereo not shown) [Compound Z1675288656]
19,19,O=C(NCCCc1c[nH]c2ccccc12)Nc1ccncc1F [Compound Z1677751393]
20,0,O=C(NCCN1CCc2ccccc2C1)Nc1ccncc1F [Compound Z1677754180]
21,4,O=C(NCc1cnn(Cc2ccccc2)c1)Nc1ccncc1F [Compound Z1677761301]

row,First screening IR (inhibition rate) [%],SMILES
1,2,COc1ccc(Br)c(CN(C)C(C)C2CCN(C)CC2)c1 (stereo not shown) [Compound Z1682981267]
2,0,NC(=O)C(Nc1cnn(Cc2ccccc2)c1)c1ccc(F)cc1 (stereo not shown) [Compound Z1686719326]
3,9,Cc1cnc(C)c(NCc2cccc(Cn3ccnc3C)c2)n1 [Compound Z1687428428]
4,15,Cc1cnc(CCSc2ncc(-c3ccc(F)cc3)o2)cn1 [Compound Z1688195829]
5,-9,CN(C)c1ccc(NC(=O)N(C)C2CS(=O)(=O)c3ccc(Cl)cc32)cn1 (stereo not shown) [Compound Z1688689058]
6,60,Nc1nc(N2CC=C(c3ccccc3F)CC2)c2[nH]cnc2n1 [Compound Z1699229618]
7,-12,CC(C)COCCCNS(=O)(=O)CCCS(=O)(=O)N(C)C [Compound Z1702883776]
8,-6,CN(C)S(=O)(=O)CCCS(=O)(=O)N(C)C1CCC1 [Compound Z1720728610]
9,-10,c1ccc(-c2nc(NCc3ccc(-n4cncn4)cc3)no2)cc1 [Compound Z1722673239]
10,17,Cn1ccnc1C(O)(CCNC(=O)c1cccc(-c2cnc3[nH]c(=O)n(C)c3c2)c1)C(F)(F)F (stereo not shown) [Compound Z1723428243]
11,-9,O=C(O)c1cccc(/C=C/c2ccnnc2)c1 [Compound Z1728621359]
12,2,C/C(=C/c1ccc2ncccc2c1)c1cnccn1 [Compound Z1728623559]
13,2,CC1CC(CNC(=O)c2ccc(O)cc2F)CN1Cc1ccccc1 (stereo not shown) [Compound Z1735017324]
14,6,Cn1cncc1CC(=O)Nc1ccc2nc(-c3cc(F)ccc3F)[nH]c2c1 [Compound Z1737110153]
15,8,Oc1cncc(/C=C/c2nc(-c3ccncc3)no2)c1 [Compound Z1739342675]
16,3,CC(C)Oc1cc(CN(c2ncnc3c2cnn3C)C2CC2)ccn1 [Compound Z1739489055]
17,26,CSc1ccc(C(C)N2CCCC(C(=O)N3CCOCC3)C2)cc1F (stereo not shown) [Compound Z1742902065]
18,37,CNC(=O)c1cccc(NCc2cc(C)ccc2O)n1 [Compound Z1743524859]
19,55,Cc1nccn1Cc1ccc(NC(=O)c2ncccc2O)cc1 [Compound Z1746485864]
20,3,CNc1nc(NC2CCOC2c2ccc(F)c(F)c2)ncc1Br (stereo not shown) [Compound Z1765170433]
21,-20,CC1(NC(=O)OC(C)(C)C)CCN(C(=O)c2cc3c(cc2O)CCCC3)CC1 [Compound Z1769013356]

# Same assay, conditions: second screening, dissolved from fresh powder; n = 4; 10 μmol L−1 compound
row,Second screening IR (inhibition rate) [%],SMILES
1,0,Cc1nccn1-c1cncc(N2CCC3(CCCC3)CC2)n1 [Compound Z1578863056]
